Assay results taken from US4412994A, “Mannich-base hydroxamic acid prodrugs, compositions and use” (INTERx Research Corporation, priority 1982, dated 1983).

test system: mouse ear; assay: mouse ear assay (croton oil-induced ear inflammation, anti-inflammatory activity); format: in vivo, male ddY strain mouse; settings: topical, 0.05 ml in acetone containing 2% croton oil on right ear; 3 hours; linear regression of data at 2×10^-2, 4×10^-2 and 8×10^-2 M; groups of 15 mice
Protocol: G. Van Arman, Clin. Pharm. […] Details of the mouse ear assay are as follows:
The test animal was the male ddY strain mouse (20-25 grams each). Solutions of the test compound in acetone containing 2% croton oil (i.e. a solution containing 98 parts of acetone to 2 parts of croton oil) were prepared for varying concentrations of the test compound. Then, the test animals were anesthetized and 0.05 ml of the selected test solution was applied in 0.025 ml aliquots, one each to the anterior and posterior surface of the right ear of each mouse. Three hours after application, the mice were sacrificed via ether inhalation and both ears were removed from each mouse. Then, one circular section, 8 mm in diameter, was taken from each ear using a leather punch. The increase in weight caused by the irritant was determined by subtracting the weight of the untreated left ear section from that of the right ear section. Drug effects expressed as percent inhibition were determined at each selected concentration (molarity) of each test compound according to the following equation: [formula]
Groups of 15 mice were treated at each dosage level of each test compound. The control group consisted of 30 mice. In the control group, the right ear of each mouse was treated with the croton oil/acetone solution described above but not containing test compound, while the left ear of each control mouse was untreated.
Indomethacin, indomethacin hydroxamic acid and the compounds of Examples 3, 4 and 5 were tested according to the mouse ear assay described above.

SMILES	ED50
COc1ccc2c(c1)c(CC(=O)NO)c(C)n2C(=O)c1ccc(Cl)cc1 [Indomethacin hydroxamic acid, α-[1-(4'-Chlorobenzoyl)-5-methoxy-2-methylindol-3-yl]acetohydroxamicAcid]	0.096 M
COc1ccc2c(c1)c(CC(=O)O)c(C)n2C(=O)c1ccc(Cl)cc1 [Indomethacin, 1-(4'-Chlorobenzoyl)-5-methoxy-2-methyl-3-indolylacetic Acid, reference compound]	0.061 M
CCN(CC)CN(O)C(=O)Cc1c(C)n(C(=O)c2ccc(Cl)cc2)c2ccc(OC)cc12 [α-[1-(4'-Chlorobenzoyl)-5-methoxy-2-methylindol-3-yl]-N-(N', N'-diethylaminomethyl)acetohydroxamic Acid]	0.041 M
COc1ccc2c(c1)c(CC(=O)N(O)CN1CCOCC1)c(C)n2C(=O)c1ccc(Cl)cc1 [α-[1-(4'-Chlorobenzoyl)-5-methoxy-2-methylindol-3-yl]-N-(morpholinomethyl)acetohydroxamic Acid]	0.054 M
COc1ccc2c(c1)c(CC(=O)N(O)CN1CCN(C)CC1)c(C)n2C(=O)c1ccc(Cl)cc1 [α-[1-(4'-Chlorobenzoyl)-5-methoxy-2-methylindol-3-yl]-N-[(4-methylpiperazin-1-yl)methyl]acetohydroxamic Acid]	0.027 M
